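Cultured in 96-well plates, cells were exposed to test compound for 48 hours across five concentrations. TGI marks complete inhibition of growth.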
Columns and labels:
Experiment in all cases: growth of human tumour cells (NCI), 48 h
SK-MEL-2 melanoma = test system: SK-MEL-2 melanoma
HCT-15 colon = test system: HCT-15 colon
SK-OV-3 ovarian = test system: SK-OV-3 ovarian
RPMI-8226 leukemia = test system: RPMI-8226 leukemia
EKVX NSCLC = test system: EKVX NSCLC
BT-549 breast = test system: BT-549 breast
DU-145 prostate = test system: DU-145 prostate
SK-MEL-5 melanoma = test system: SK-MEL-5 melanoma
CAKI-1 renal = test system: CAKI-1 renal
MDA-N = test system: MDA-N
UO-31 renal = test system: UO-31 renal
MDA-MB-231 breast = test system: MDA-MB-231 breast
HOP-92 NSCLC = test system: HOP-92 NSCLC
SN12C renal = test system: SN12C renal
UACC-62 melanoma = test system: UACC-62 melanoma
UACC-257 melanoma = test system: UACC-257 melanoma
T-47D breast = test system: T-47D breast
NCI/ADR-RES ovarian = test system: NCI/ADR-RES ovarian
MOLT-4 leukemia = test system: MOLT-4 leukemia
SK-MEL-28 melanoma = test system: SK-MEL-28 melanoma
SR leukemia = test system: SR leukemia
NCI-H522 lung = test system: NCI-H522 lung
NCI-H460 lung = test system: NCI-H460 lung
U251 CNS = test system: U251 CNS
IGROV1 ovarian = test system: IGROV1 ovarian
OVCAR-3 ovarian = test system: OVCAR-3 ovarian
HOP-62 NSCLC = test system: HOP-62 NSCLC
SNB-75 CNS = test system: SNB-75 CNS
A549 NSCLC = test system: A549 NSCLC
OVCAR-8 ovarian = test system: OVCAR-8 ovarian
OVCAR-5 ovarian = test system: OVCAR-5 ovarian
PC-3 prostate = test system: PC-3 prostate
A498 renal = test system: A498 renal
RXF 393 renal = test system: RXF 393 renal
MALME-3M melanoma = test system: MALME-3M melanoma
M14 melanoma = test system: M14 melanoma
COLO 205 colon = test system: COLO 205 colon
HT29 colon = test system: HT29 colon
HCT-116 colon = test system: HCT-116 colon
CCRF-CEM leukemia = test system: CCRF-CEM leukemia
OVCAR-4 ovarian = test system: OVCAR-4 ovarian
NCI-H226 lung = test system: NCI-H226 lung
SW-620 colon = test system: SW-620 colon
KM12 colon = test system: KM12 colon
K-562 leukemia = test system: K-562 leukemia
SF-268 CNS = test system: SF-268 CNS
MCF7 breast = test system: MCF7 breast
HS 578T breast = test system: HS 578T breast
NCI-H23 lung = test system: NCI-H23 lung
SF-295 CNS = test system: SF-295 CNS
SNB-19 CNS = test system: SNB-19 CNS
HL-60(TB) leukemia = test system: HL-60(TB) leukemia
TK-10 renal = test system: TK-10 renal
SF-539 CNS = test system: SF-539 CNS
786-0 renal = test system: 786-0 renal
MDA-MB-435 = test system: MDA-MB-435
ACHN renal = test system: ACHN renal
HCC-2998 colon = test system: HCC-2998 colon
LOX IMVI melanoma = test system: LOX IMVI melanoma

SMILES: O=C(O)c1c[nH]c2cc(OCc3ccccc3)ccc2c1=O
- TGI (SK-MEL-2 melanoma): 33.3 µM
- TGI (HCT-15 colon): 36.1 µM
- TGI (SK-OV-3 ovarian): 36.6 µM
- TGI (RPMI-8226 leukemia): 64.9 µM
- TGI (EKVX NSCLC): 38.7 µM
- TGI (BT-549 breast): 32.5 µM
- TGI (DU-145 prostate): 33.3 µM
- TGI (SK-MEL-5 melanoma): 32 µM
- TGI (CAKI-1 renal): 40.1 µM
- TGI (MDA-N): 30.9 µM
- TGI (UO-31 renal): 31.1 µM
- TGI (MDA-MB-231 breast): 48.6 µM
- TGI (HOP-92 NSCLC): 35.1 µM
- TGI (SN12C renal): 32.2 µM
- TGI (UACC-62 melanoma): 30.5 µM
- TGI (UACC-257 melanoma): 50.7 µM
- TGI (T-47D breast): 38.8 µM
- TGI (NCI/ADR-RES ovarian): 37.8 µM
- TGI (MOLT-4 leukemia): 84 µM
- TGI (SK-MEL-28 melanoma): 30.1 µM
- TGI (SR leukemia): 53.8 µM
- TGI (NCI-H522 lung): 30.8 µM
- TGI (NCI-H460 lung): 34.5 µM
- TGI (U251 CNS): 36.1 µM
- TGI (IGROV1 ovarian): 32.4 µM
- TGI (OVCAR-3 ovarian): 35.3 µM
- TGI (HOP-62 NSCLC): 35.9 µM
- TGI (SNB-75 CNS): 31.4 µM
- TGI (A549 NSCLC): 35.5 µM
- TGI (OVCAR-8 ovarian): 35.3 µM
- TGI (OVCAR-5 ovarian): 42.1 µM
- TGI (PC-3 prostate): 31.2 µM
- TGI (A498 renal): 31.4 µM
- TGI (RXF 393 renal): 38.2 µM
- TGI (MALME-3M melanoma): 31.7 µM
- TGI (M14 melanoma): 31.8 µM
- TGI (COLO 205 colon): 34.8 µM
- TGI (HT29 colon): 33.3 µM
- TGI (HCT-116 colon): 31 µM
- TGI (CCRF-CEM leukemia): 53.2 µM
- TGI (OVCAR-4 ovarian): 31.1 µM
- TGI (NCI-H226 lung): 33.8 µM
- TGI (SW-620 colon): 40.5 µM
- TGI (KM12 colon): 33.8 µM
- TGI (K-562 leukemia): 54.3 µM
- TGI (SF-268 CNS): 29.4 µM
- TGI (MCF7 breast): 39.8 µM
- TGI (HS 578T breast): 45.2 µM
- TGI (NCI-H23 lung): 33.3 µM
- TGI (SF-295 CNS): 34.4 µM
- TGI (SNB-19 CNS): 32.4 µM
- TGI (HL-60(TB) leukemia): 2.32 µM
- TGI (TK-10 renal): 39.6 µM
- TGI (SF-539 CNS): 36.8 µM
- TGI (786-0 renal): 32.5 µM
- TGI (MDA-MB-435): 30 µM
- TGI (ACHN renal): 32.7 µM
- TGI (HCC-2998 colon): 32.2 µM

SMILES: O=C(O)C1(Cc2ccccc2)Cc2ccccc2C1
- TGI (SK-MEL-2 melanoma): > 100 µM
- TGI (HCT-15 colon): > 100 µM
- TGI (SK-OV-3 ovarian): > 100 µM
- TGI (RPMI-8226 leukemia): > 100 µM
- TGI (EKVX NSCLC): > 100 µM
- TGI (BT-549 breast): > 100 µM
- TGI (DU-145 prostate): > 100 µM
- TGI (SK-MEL-5 melanoma): > 100 µM
- TGI (MDA-N): > 100 µM
- TGI (UO-31 renal): > 100 µM
- TGI (MDA-MB-231 breast): > 100 µM
- TGI (SN12C renal): > 100 µM
- TGI (UACC-62 melanoma): > 100 µM
- TGI (UACC-257 melanoma): > 100 µM
- TGI (T-47D breast): > 100 µM
- TGI (NCI/ADR-RES ovarian): > 100 µM
- TGI (MOLT-4 leukemia): > 100 µM
- TGI (SK-MEL-28 melanoma): > 100 µM
- TGI (SR leukemia): > 100 µM
- TGI (NCI-H522 lung): > 100 µM
- TGI (NCI-H460 lung): > 100 µM
- TGI (U251 CNS): > 100 µM
- TGI (IGROV1 ovarian): > 100 µM
- TGI (OVCAR-3 ovarian): > 100 µM
- TGI (HOP-62 NSCLC): > 100 µM
- TGI (SNB-75 CNS): > 100 µM
- TGI (A549 NSCLC): > 100 µM
- TGI (LOX IMVI melanoma): > 100 µM
- TGI (OVCAR-8 ovarian): > 100 µM
- TGI (OVCAR-5 ovarian): > 100 µM
- TGI (PC-3 prostate): > 100 µM
- TGI (A498 renal): > 100 µM
- TGI (RXF 393 renal): > 100 µM
- TGI (MALME-3M melanoma): > 100 µM
- TGI (M14 melanoma): > 100 µM
- TGI (COLO 205 colon): > 100 µM
- TGI (HT29 colon): > 100 µM
- TGI (HCT-116 colon): > 100 µM
- TGI (CCRF-CEM leukemia): > 100 µM
- TGI (OVCAR-4 ovarian): > 100 µM
- TGI (NCI-H226 lung): > 100 µM
- TGI (SW-620 colon): > 100 µM
- TGI (KM12 colon): > 100 µM
- TGI (K-562 leukemia): > 100 µM
- TGI (SF-268 CNS): > 100 µM
- TGI (MCF7 breast): > 100 µM
- TGI (HS 578T breast): > 100 µM
- TGI (NCI-H23 lung): > 100 µM
- TGI (SF-295 CNS): > 100 µM
- TGI (SNB-19 CNS): > 100 µM
- TGI (HL-60(TB) leukemia): > 100 µM
- TGI (TK-10 renal): > 100 µM
- TGI (SF-539 CNS): > 100 µM
- TGI (MDA-MB-435): > 100 µM
- TGI (ACHN renal): > 100 µM
- TGI (HCC-2998 colon): > 100 µM

Reference: PubChem BioAssay (NCI)
